Data on 1 molecule can be found in patent US20090124650A1 (priority 2007, published 2009).

The conditions of data set [1]: in vivo; cited from earlier work.
The nature of data set [2]: In vivo ethanol study: oxymorphone 40 mg ER tablets with 240 mL of 40%, 20%, 4%, 0% ethanol. More on the design: species or system human. As for the experimental part:
The study design was a randomized, open-label, single-dose, four-period crossover in 28 subjects. […] Subjects were fasted overnight for at least 8 hours prior to dosing. Water was allowed ad lib except from 1 hour before dosing until 1 hour after dosing. A standardized meal was served 4 hours and 10 hours after dosing.
A) 40% ethanol B) 20% ethanol C) 4% ethanol D) 0% ethanol
Serial blood samples were obtained from 0 to 48 hours after dosing. Plasma samples were assayed for oxymorphone. Pharmacokinetic parameters for oxymorphone were determined using non-compartmental methods. […] Any treatment in which a subject vomited during the dosing interval (0-12 hours) was excluded from the primary pharmacokinetic analysis.

Data set [3] is described as follows: Bioavailability in elderly, hepatically and renally impaired patients.
Data set [4] is described as follows: Study 5: controlled release 40 mg vs immediate release 4x10 mg, fed and fasting. The data set is classed as in vivo, human. Conditions: food effect. The text has this:
Subjects randomized to Treatment 5A and Treatment 5C, as described below, were in a fasted state following a 10-hour overnight fast. […] There was a 14-day washout interval between the four dose administrations. The subjects were confined to the clinic during each study period. Subject assigned to receive Treatment 5A and Treatment 5B were discharged from the clinic on Day 3 following the 48-hour procedures, and subjects assigned to receive Treatment 5C and Treatment 5D were discharged from the clinic on Day 2 following the 36-hour procedures. On Day 1 of each study period the subjects received one of four treatments:
Blood samples (7 ml) were collected during each study period at the 0 hour (predose), and at 0.25, 0.5, 0.75, 1.0, 1.5, 2, 3, 4, 5, 6, 8, 10, 12, 24, 36, 48, 60, and 72 hours post-dose (19 samples) for subjects randomized to all Treatments.

Setting [5] is: elderly patients (65 years old or older).

On to `CN1CC[C@]23c4c5ccc(O)c4O[C@H]2C(=O)CC[C@@]3(O)[C@H]1C5` [oxymorphone, 14-hydroxydihydromorphinone], for which the oral bioavailability entry in data set [1] is “about 10%”. For the same molecule, the “AUC change with ethanol” value in data set [2] (240 mL of 20% or 4% ethanol concomitantly) is “essentially unchanged”; in data set [2] (240 mL of 40% ethanol concomitantly), “not statistically significantly changed”. Also, the “Cmax increase in individual subjects, up to” value in data set [2] (240 mL of 40% ethanol) is reported as “up to 270%”. Also, the “Cmax increase (average) vs 0% ethanol” value in data set [2] (240 mL of 40% ethanol, excluding subjects who vomited) is listed as 70%. For the same molecule, the “increase in Cmax” value in data set [3] (setting [5]) is reported as “about 1.5 fold”. The increase in bioavailability entry in data set [3] (setting [5]) was “about 1.4 fold”. Besides, the bioavailability result in data set [3] (hepatically impaired patients) and in data set [3] (renally impaired patients) was “increased” in each case. Moreover, in data set [4], the “Cmax greater with a meal than without” value is listed as 50%.
